In patent US20130053243A1, “PLANTS HAVING INCREASED TOLERANCE TO HERBICIDES” (BASF SE, priority 2010, published 2013):

Key:
[1] = target: T1, Arabidopsis HPPD variant P336A E363Q (Arabidopsis thaliana, UniProt P93836, E363Q/P336A); assay: HPPD activity assay, mutant enzyme; assay type: biochemical
T1 construct: His6 (N); made in house; host or cells: E. coli BL21 (DE3)
Experimental: (§1) HPPD produces homogentisic acid and CO2 from 4-hydroxyphenylpyruvate (4-HPP) and O2. The activity assay for HPPD is based on the analysis of homogentisic acid by reversed phase HPLC.
(§2) The assay mixture can contain 150 mM potassium phosphate buffer pH 7.0, 50 mM L-ascorbic acid, 1 μM FeSO4 and 7 μg of purified enzyme in a total volume of 1 ml.
(§3) Inhibitors are dissolved in DMSO (dimethylsulfoxide) to a concentration of 20 mM or 0.5 mM, respectively. From this stock solution serial five-fold dilutions are prepared in DMSO, which are used in the assay. The respective inhibitor solution accounts for 1% of the assay volume. Thus, final inhibitor concentrations range from 200 μM to 2.5 nM or from 5 μM to 63 pM, respectively.
(§4) After a preincubation of 30 min the reaction is started by adding 4-HPP to a final concentration of 0.1 mM. The reaction is allowed to proceed for 120 min at room temperature. The reaction is stopped by addition of 100 μl of 4.5 M phosphoric acid.
(§5) The sample is extracted on an Oasis® HLB cartridge 3 cc/60 mg (Waters) that was preequilibrated with 63 mM phosphoric acid. L-ascorbic acid is washed out with 3 ml of 63 mM phosphoric acid. Homogentisate is eluted with 1 ml of a 1:1 mixture of 63 mM phosphoric acid and methanol (w/w).
(§6) 10 μl of the eluate is analyzed by reversed phase HPLC on a Symmetry® C18 column (particle size 3.5 μm, dimensions 4.6×100 mm; Waters) using 5 mM H3PO4/15% ethanol (w/w) as an eluent.
(§7) Homogentisic acid is detected electrochemically and quantified by measuring peak areas (Empower software; Waters).
(§8) Activities are normalized by setting the uninhibited enzyme activity to 100%. IC50 values are calculated using non-linear regression.
(§9) The assay mixture can contain 150 mM potassium phosphate buffer pH 7.0, 50 mM L-ascorbic acid, 100 μM Catalase (Sigma-Aldrich), 1 μM FeSO4 and 0.2 units of purified HPPD enzyme in a total volume of 505 μl. 1 unit is defined as the amount of enzyme that is required to produce 1 nmol of HGA per minute at 20° C.
(§10) After a preincubation of 30 min the reaction is started by adding 4-HPP to a final concentration of 0.05 mM. The reaction is allowed to proceed for 45 min at room temperature. The reaction is stopped by the addition of 50 μl of 4.5 M phosphoric acid. The sample is filtered using a […] pore size PVDF filtration device.
(§11) 5 μl of the cleared sample is analyzed on an Atlantis T3 column (particle size 3 μm, dimensions 3×50 mm; Waters) by isocratic elution using 90% 10 mM NaH2PO4 pH 2.2, 10% methanol (v/v).
(§12) HGA is detected electrochemically at 750 mV (mode: DC; polarity: positive) and quantified by integrating peak areas (Empower software; Waters).
(§13) Inhibitors are dissolved in DMSO (dimethylsulfoxide) to a concentration of 0.5 mM. From this stock solution serial five-fold dilutions are prepared in DMSO, which are used in the assay. The respective inhibitor solution accounts for 1% of the assay volume. Thus, final inhibitor concentrations range from 5 μM to 320 pM, respectively. Activities are normalized by setting the uninhibited enzyme activity to 100%. IC50 values are calculated using non-linear regression.
(§14) Purified, mutant HPPD enzymes are obtained by the methods described above. Dose response and kinetic measurements are carried out using the described HPPD activity assay. Apparent michaelis constants (Km) and maximal reaction velocities (Vmax) are calculated by non-linear regression with the software GraphPad Prism 5 (GraphPad Software, La Jolla, USA) using a substrate inhibition model. Apparent kcat values are calculated from Vmax assuming 100% purity of the enzyme preparation. Weighted means (by standard error) of Km and IC50 values are calculated from at least three independent experiments. The Cheng-Prusoff equation for competitive inhibition (Cheng, Y. C.; Prusoff, W. H. Biochem Pharmacol 1973, 22, 3099-3108) is used to calculate dissociation constants (Ki). Examples of the data obtained are depicted in Table 13.

[2] = target: T2, Arabidopsis HPPD variant I393L (Arabidopsis thaliana, UniProt P93836, I393L); assay: HPPD activity assay, mutant enzyme; assay type: biochemical
T2 construct: His6 (N); made in house; host or cells: E. coli BL21 (DE3)
Experimental: as §1, §2, §3, §4, §5, §6, §7, §8, §9, §10, §11, §12, §13, §14

[3] = target: T3, Arabidopsis HPPD variant M335Q (Arabidopsis thaliana, UniProt P93836, M335Q); assay: HPPD activity assay, mutant enzyme; assay type: biochemical
T3 construct: His6 (N); made in house; host or cells: E. coli BL21 (DE3)
Experimental: as §1, §2, §3, §4, §5, §6, §7, §8, §9, §10, §11, §12, §13, §14

[4] = target: T4, Arabidopsis HPPD variant L385V (Arabidopsis thaliana, UniProt P93836, L385V); assay: HPPD activity assay, mutant enzyme; assay type: biochemical
T4 construct: His6 (N); made in house; host or cells: E. coli BL21 (DE3)
Experimental: as §1, §2, §3, §4, §5, §6, §7, §8, §9, §10, §11, §12, §13, §14

Chlamydomonas HPPD2 = Chlamydomonas HPPD2 (Chlamydomonas reinhardtii, UniProt A0A2K3DET5); assay: HPPD activity assay, wildtype enzyme; assay type: biochemical; conditions: calculated from IC50 with Cheng-Prusoff equation, read-out: dissociation constant Ki
Experimental: as §1, §2
Inhibitors are dissolved in DMSO (dimethylsulfoxide) to a concentration of 20 mM or 0.5 mM, respectively. From this stock solution serial five-fold dilutions are prepared in DMSO, which are used in the assay. The respective inhibitor solution accounts for 1% of the assay volume. […]
as §6, §7
Activities are normalized by setting the uninhibited enzyme activity to 100%. IC50 values are calculated using non-linear regression. […]
as §11
HGA is detected electrochemically at 750 mV (mode: DC; polarity: positive) and quantified by integrating peak areas (Empower software; Waters). […]

C. reinhardtii (CC-503) = assay: C. reinhardtii growth inhibition by HPPD inhibiting herbicides; assay type: cell-based, Chlamydomonas reinhardtii
Excerpt: Bleaching herbicides with a mode of action in plastoquinone or tocopherol biosynthesis can inhibit algae growth (Tables 14 and 15). These effects can be partly reversed by intermediates of homogentisic acid biosynthesis (Table 14). To generate mutations conferring “coumarone-derivative herbicide” resistance in HPPD or HST genes, chemical or UV mutagenesis can be used. Especially unicellular organisms like Chlamydomonas reinhardtii or Scenedesmus obliquus are useful for identifying dominant mutations in herbicide resistance.
Algae cells of Chlamydomonas reinhardtii strains CC-503 and CC-1691 (Duke University, Durham, USA) are propagated in TAP medium (Gorman and Levine (1965) PNAS 54: 1665-1669) by constant shaking at 100 rpm, 22° C. and 30 μmol Phot*m^−2*[…] light illumination. Scenedesmus obliquus (University of Gottingen, Germany) are propagated in algae medium as described (Boger and Sandmann, (1993) In: Target assays for modern herbicides and related phytotoxic compounds, Lewis Publishers) under same culturing conditions as mentioned for Chlamydomonas. Compound screening is performed at 450 μmol Phot*m^−2*[…] illumination.

T3 sequence (P93836 whole entry M335Q): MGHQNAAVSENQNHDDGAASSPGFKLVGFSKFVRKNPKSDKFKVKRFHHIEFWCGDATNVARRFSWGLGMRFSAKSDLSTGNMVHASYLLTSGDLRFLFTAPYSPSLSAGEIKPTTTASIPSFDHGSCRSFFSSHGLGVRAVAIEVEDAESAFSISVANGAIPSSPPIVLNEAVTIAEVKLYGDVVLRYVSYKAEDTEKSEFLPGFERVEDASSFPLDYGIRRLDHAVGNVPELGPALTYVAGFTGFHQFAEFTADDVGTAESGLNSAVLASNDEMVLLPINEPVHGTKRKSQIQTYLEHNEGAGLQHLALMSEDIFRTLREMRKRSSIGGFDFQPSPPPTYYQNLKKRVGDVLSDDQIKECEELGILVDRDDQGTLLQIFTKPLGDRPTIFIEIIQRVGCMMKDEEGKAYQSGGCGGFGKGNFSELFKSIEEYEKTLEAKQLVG
T4 sequence (P93836 whole entry L385V): as the sequence (P93836 whole entry M335Q) above, with Q335M, L385V counted along it
Chain of Chlamydomonas HPPD2 (A0A2K3DET5 entry or part of it): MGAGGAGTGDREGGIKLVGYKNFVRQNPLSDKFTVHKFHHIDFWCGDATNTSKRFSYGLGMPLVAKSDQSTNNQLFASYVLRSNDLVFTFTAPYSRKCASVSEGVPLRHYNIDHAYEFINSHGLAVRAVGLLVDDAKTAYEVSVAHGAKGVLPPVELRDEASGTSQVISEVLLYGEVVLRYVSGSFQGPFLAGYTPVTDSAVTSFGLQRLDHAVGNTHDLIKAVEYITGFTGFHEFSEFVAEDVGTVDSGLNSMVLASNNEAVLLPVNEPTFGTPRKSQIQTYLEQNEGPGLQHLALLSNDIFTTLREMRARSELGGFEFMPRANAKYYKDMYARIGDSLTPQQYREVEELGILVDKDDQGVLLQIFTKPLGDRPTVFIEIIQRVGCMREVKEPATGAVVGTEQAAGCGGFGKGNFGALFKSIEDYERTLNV
T2 sequence (P93836 whole entry I393L): as the sequence (P93836 whole entry M335Q) above, with Q335M, I393L counted along it
T1 sequence (P93836 whole entry P336A/E363Q): as the sequence (P93836 whole entry M335Q) above, with Q335M, P336A, E363Q counted along it

Row | Compound | Ki [1] [nM] | Ki [2] [nM] | Ki [3] [nM] | Ki [4] [nM] | Ki (Chlamydomonas HPPD2) [nM] | Growth inihibition [%] C. reinhardtii (CC-503) (C. reinhardtii (CC-503); c 1 * 10^−4 M) [%] | Growth inihibition [%] C. reinhardtii (CC-503) + Homogentisic acid (C. reinhardtii (CC-503); c 1 * 10^−4 M) [%] | Growth inihibition [%] C. reinhardtii (CC-503) (C. reinhardtii (CC-503); c 5 * 10^−4 M) [%] | Growth inihibition [%] C. reinhardtii (CC-503) + Homogentisic acid (C. reinhardtii (CC-503); c 5 * 10^−4 M) [%]
1 | CC1=NOC(c2c(Cl)ccc(C3=C(O)c4ncccc4N(CC(F)F)S3(=O)=O)c2Cl)C1 (stereo not drawn) [Inhibitor 1, 3-[2,4-dichloro-3-(3-methyl-4,5-dihydroisoxazol-5-yl)phenyl]-1-(2,2-difluoroethyl)-2,2-dioxo-pyrido[3,2-c]thiazin-4-ol] | 13 | 21 | 24 | 19 | 8 | – | – | – | –
2 | Cc1c(C(=O)c2cnn(C)c2O)ccc(S(C)(=O)=O)c1C1=NOCC1 [Topramezone, reference compound] | – | – | – | – | – | 100 | 80 | 100 | 100
